# Measurements reported in PubChem BioAssay (NCI).
#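 Following 48 hours of exposure in 96-well plates, responses at five concentrations were used to interpolate endpoints linearly. TGI is the concentration that stops growth completely.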
# How the values were obtained:
# Assay in all cases: NCI-60 cell line screen, 48 h
# BT-549 breast = tested on: BT-549 breast
# HL-60(TB) leukemia = tested on: HL-60(TB) leukemia
# HOP-92 NSCLC = tested on: HOP-92 NSCLC
# HS 578T breast = tested on: HS 578T breast
# MCF7 breast = tested on: MCF7 breast
# MOLT-4 leukemia = tested on: MOLT-4 leukemia
# NCI-H460 lung = tested on: NCI-H460 lung
# RPMI-8226 leukemia = tested on: RPMI-8226 leukemia
# SK-MEL-5 melanoma = tested on: SK-MEL-5 melanoma
# SNB-19 CNS = tested on: SNB-19 CNS
# UACC-62 melanoma = tested on: UACC-62 melanoma
Compound,TGI (BT-549 breast) [µM],TGI (HL-60(TB) leukemia) [µM],TGI (HOP-92 NSCLC) [µM],TGI (HS 578T breast) [µM],TGI (MCF7 breast) [µM],TGI (MOLT-4 leukemia) [µM],TGI (NCI-H460 lung) [µM],TGI (RPMI-8226 leukemia) [µM],TGI (SK-MEL-5 melanoma) [µM],TGI (SNB-19 CNS) [µM],TGI (UACC-62 melanoma) [µM]
CCOC(=O)/C(C(N)=O)=C(\O)C(=O)/C(Br)=C(\O)c1ccccc1,33.7,0.248,53.7,50.1,36.9,8.33,56.1,29.4,30.5,> 69.1,33.3
CC(=O)n1cc(C2CC23N=C(c2ccccc2)OC3=O)c2ccccc21 (centres undefined),30.3,6.12,52.5,68.6,42.9,–,> 64.9,26.2,40.2,> 89.7,31.7
Cc1cc(S(=O)(=O)Nc2nc3ncccc3[nH]2)c(S)cc1Cl,> 100,> 100,> 100,> 100,> 100,> 100,> 100,> 100,> 100,> 100,> 100
Cc1ccc(S(=O)(=O)N2C[C@@H]3CC[C@]4(CO[Si](C)(C)C(C)(C)C)N[C@@H](c5ccccc5)[C@H]2[C@H]34)cc1,87.8,> 100,28.7,> 100,> 100,> 100,> 100,46.8,30.6,> 100,> 100
NNC(=O)Nc1nc2ccc(NN)cc2[nH]1,84.1,32.4,57.3,> 100,82.5,32.3,> 100,26.7,51.9,> 100,56.4
C#CC(O)(c1nc2ccccc2s1)c1nc2ccccc2s1,57.3,46.1,38.2,> 100,52.9,> 100,–,76.8,30.7,> 100,26.1
O=C(Nc1sccc1S(=O)(=O)c1ccc(Cl)cc1)c1ccc(F)cc1F,46.8,> 100,42.5,80.5,> 100,56.7,–,> 100,> 100,48.8,86.8
C#C[C@]1(O)CC[C@H]2[C@@H]3CCC4=C/C(=N/NC(=O)c5cccc6c(=O)c7ccccc7[nH]c56)CCC4[C@H]3CC[C@@]21C (some centres undefined),63.3,> 100,> 100,> 100,> 100,> 100,–,> 100,64.8,> 100,> 100
COC(=O)c1ccccc1C1CN=NC12Cc1c(ccc3c1CCC3)C2=O (centres undefined),> 100,59.3,> 100,> 100,> 100,> 100,> 100,86,58.6,> 100,> 100
CSC(SC)=C(C#N)C(=O)Nc1cccc(Cl)c1,> 100,35.2,55.6,> 100,> 100,87.2,> 100,–,40.7,> 100,> 100
CCOC(=O)C1CC(C(=O)c2ccccc2)N2c3ccccc3-c3ccccc3C12 (centres undefined),> 100,29.7,> 100,97.2,> 100,> 100,> 100,40.8,> 100,> 100,> 100
Fc1cccc(F)c1C1SCc2nc3cc(Cl)c(Cl)cc3n21 (centres undefined),> 100,> 100,> 100,> 100,> 100,> 100,> 100,> 100,> 100,> 100,> 100
O=C1c2cc(Cc3ccccc3)c(=O)c(Cc3ccccc3)cc2C(=O)c2cc(Cc3ccccc3)c(=O)c(Cc3ccccc3)cc21,> 100,> 100,> 100,> 100,> 100,> 100,> 100,> 100,> 100,> 100,–
Cn1cccc1-c1ccc(-c2ccc(CO)[se]2)[se]1,> 78.5,18.9,> 100,> 100,> 40,71.4,> 100,47.7,> 75,> 100,> 100
COc1ccc(C2C3=C(N=C4SC(C(C)=O)=C(C)N42)c2ccccc2CC3)cc1 (centres undefined),> 100,58,> 100,> 100,> 100,–,–,29.9,> 100,> 100,> 100
Cc1nc2cc(F)c(F)cc2[nH]c1=O,> 100,> 100,> 100,> 100,> 100,> 100,> 100,> 100,> 100,> 100,> 100
O=C(O)CSc1ccccc1C(=O)O,> 100,> 100,> 100,> 100,> 100,> 100,38.1,> 100,> 100,> 100,> 100
O=C1NC(=O)c2ccccc2/C1=C/c1ccc2c(c1)OCO2,50.8,> 100,> 100,47.2,> 100,> 100,–,74.3,29.8,> 100,54.3
CC(C)(C)OC(=O)NC12C3C4C1C1C2C3C41NC(=O)OC(C)(C)C (centres undefined),> 100,53.9,> 100,> 100,95.9,40.4,> 100,–,> 100,> 100,> 100
